According to patent US5807837A, “Composition and method for the treatment or prophylaxis of viral infections using modified oligodeoxyribonucleotides” (Sankyo Company, Limited, priority 1993, dated 1998):

Tested on: non-HIV-1 infected MT-4 cells
Assay: Cytotoxicity: inhibition of multiplication of non-HIV-1 infected MT-4 cells (MTT method)
Type: cell-based
Details: 6 days culture, 50% inhibition of multiplication
Description: HIV-1 infected MT-4 cells and non-HIV-1 infected MT-4 cells were suspended in serum culture media so that a concentration of […] cells/ml of each was attained. One hundred μl of a solution of stepwise diluted sample compound (dissolved in serum culture media), prepared in advance, was placed in each well of […] microtiter plates. Then, 100 μl of each of the above-mentioned cell suspensions was added to each well of microtiter plates, and their cells were cultured for 6 days in the presence of 5% carbon dioxide gas.
As a control, HIV-1 infected MT-4 cells and non-HIV-1 infected MT-4 cells in which no sample compound was added were cultured in the same manner.
After the cultivation, live cell number was measured based on the MTT(3-(4,5-dimethylthiazole-2-yl)-2,5-diphenyltetrazolium bromide) method (L. M. Green et al., J. Immunol, Methods, 70, 257-268(1984)). Then the cytopathic activity of HIV-1 was measured. With the cytopathic activity of HIV-1 infected MT-4 cells to which no sample compound was added as 100%, and the cytopathic activity of […] MT-4 cells to which no sample compound was added as 0%, the concentration of the specimen which inhibited the cytopathic activity of HIV-1 infected MT-4 cells by 50(IC50) was calculated. The cytotoxicity of the sample compound was determined as that concentration which inhibited the multiplication of non-HIV-1 infected MT-4 cells by 50% (CC50).

Substance	CC50
DMT--O--AATGGGAGG--OH [Example 81]	> 100.0 µg/mL
DMT--O--CCG--OH [Example 74]	> 100.0 µg/mL
DMT--O--CGCGG--OH [Example 48]	> 100.0 µg/mL
DMT--O--CGGGAGG--OH [Example 29]	> 100.0 µg/mL
DMT--O--CGGGG--OH [Example 45]	> 100.0 µg/mL
DMT--O--CGGGT--OH [Example 43]	100.0 µg/mL
DMT--O--CTGGGAGG--OH [Example 37]	> 100.0 µg/mL
DMT--O--GGGCGGGGC--OH [Example 70]	60.0 µg/mL
DMT--O--GGGGAGG--OH [Example 33]	> 100.0 µg/mL
DMT--O--GTGGGAGG--OH [Example 77]	> 100.0 µg/mL
DMT--O--TAGGAGG--OH [Example 71]	37.0 µg/mL
DMT--O--TCGGAGG--OH [Example 75]	40.0 µg/mL
DMT--O--TGCGAGG--OH [Example 32]	> 100.0 µg/mL
DMT--O--TGG--OH [Example 78]	> 50.0 µg/mL
DMT--O--TGGG--OH [Example 26]	80.0 µg/mL
DMT--O--TGGGA--OH [Example 27]	95.0 µg/mL
DMT--O--TGGGAGA--OH [Example 80]	> 100.0 µg/mL
DMT--O--TGGGAGG--OH [Example 30]	> 100.0 µg/mL
DMT--O--TGGGAGGT--OH [Example 72]	> 100.0 µg/mL
DMT--O--TGGGAmGG [Example 79]	> 100.0 µg/mL
DMT--O--TGGGC--OH [Example 58]	50.0 µg/mL
DMT--O--TGGGCGCAG--OH [Example 73]	> 100.0 µg/mL
DMT--O--TGGGG--OH [Example 28]	> 100.0 µg/mL
DMT--O--TGGGT--OH [Example 57]	100.0 µg/mL
DMT--O--TGmCGAGG--OH [Example 76]	> 100.0 µg/mL
DMT--O--TTGGAGG--OH [Example 31]	90.0 µg/mL
DMT--O--TTGGGAGG--OH [Example 36]	100.0 µg/mL
DMT--O--mCGGGAGG--OH [Example 34]	> 100.0 µg/mL
DMT--O--mCGmCGAGG--OH [Example 35]	> 100.0 µg/mL
DMT-O-TGGGAG-OH [Example 25]	> 100.0 µg/mL
